Measurements from patent US8158621B2, “Methods of treating or preventing autoimmune diseases with 2,4-pyrimidinediamine compounds” (Rigel Pharmaceuticals, Inc., priority 2002, dated 2012).
Where two headings read alike, the source gives them in different places. Values belong to the compound of their own block, whether it stands above or below them.

How the values were obtained:
Format in all cases: cell-based
[1] = system: cultured human mast cells (CHMC); experiment: CHMC low cell density IgE activation: tryptase assay
Method: Pellet CHMC cells (980 rpm, 10 min) and resuspend in pre-warmed MT. Add 65 ul of cells to each 96-well plate. Depending on the degranulation activity for each particular CHMC donor, load 1000-1500 cells/well. Mix four times followed by a 1 hr incubation at 37° C. […] Stimulate cells by adding 25 ul of 6× anti-IgE solution to the appropriate plates. Add 25 ul MT to un-stimulated control wells. Mix twice following addition of the anti-IgE. Incubate at 37° C. for 30 minutes. […] Spin plates at 1000 rpm for 10 min to pellet cells. Transfer 25 ul of supernatant to a 96-well black bottom plate and add 100 ul of freshly diluted tryptase substrate solution to each well. Incubate plates at room temperature for 30 min.

[2] = system: cultured human mast cells (CHMC); experiment: CHMC low cell density ionomycin activation: tryptase assay; conditions: read-out: CHMC Ionomycin Tryptase
[3] = system: Human Jurkat T-cells (clone N); experiment: Jurkat T-cell activation (anti-TCR, CD69 upregulation)
How it was run: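 Readout is CD69 upregulation by flow cytometry (anti-CD69-APC, 20 min at 4 °C) after 20 h anti-TCR (C305, 500 ng/ml) stimulation at 37 °C.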

[4] = low cell density, read-out: CHMC anti-IgE Tryptase
[5] = Homo sapiens, Mast cell, Low Density, read-out: CHMC anti-IgE Tryptase
[6] = Homo sapiens, Mast cell, Low Density CHMC, anti-IgE activation, tryptase release, read-out: CHMC anti-IgE Tryptase IC50

IC50 [1, 4]: 0.625 µM
IC50 ([2]; low cell density): 22.5 µM
SMILES: COc1cc(Nc2ncc(F)c(Nc3ccc(OC(F)(F)F)c(Cl)c3)n2)cc(OC)c1 [Compound R927067]

IC50 [1, 4]: 0.137 µM
IC50 ([2]; low cell density): 9.94 µM
SMILES: COc1ccc(Nc2nc(Nc3ccc4cn[nH]c4c3)ncc2F)cc1Cl [Compound R935408]

IC50 [1, 4]: 0.496 µM
IC50 ([2]; low cell density): > 10 µM
SMILES: COc1c(Cl)cc(Nc2ncc(F)c(Nc3ccc4c(c3)NC(=O)[C@@H](C)O4)n2)cc1Cl [Compound R908947]

IC50 ([2]; low cell density): > 10 µM
SMILES: CC1(C)C(=O)NC(=O)c2cc(Nc3nc(Nc4ccc(C(N)=O)cc4)ncc3F)ccc21 [Compound R950453]

IC50 ([2]; low cell density): > 10 µM
SMILES: COc1ccc(Nc2nc(Nc3ccc4c(cnn4C)c3)ncc2F)cc1Cl [Compound R935458]

IC50 ([2]; low cell density): 9.3 µM
SMILES: CC1(C)Oc2ccc(Nc3nc(Nc4ccc5cn[nH]c5c4)ncc3F)cc2NC1=O [Compound R935430]

IC50 ([2]; low cell density): > 10 µM
SMILES: COc1ccc(Nc2ncc(F)c(Nc3ccc4c(c3)NC(C)(C)CO4)n2)cc1Cl [Compound R908587]

IC50 ([2]; low cell density): > 10 µM
SMILES: COc1cc(Nc2ncc(F)c(Nc3ccc4c(c3)NC(=O)[C@@H](C)O4)n2)cc(OC)c1 [Compound R908954]

IC50 ([2]; low cell density): 15.2 µM
SMILES: Cc1cc(C)cc(Nc2ncc(F)c(Nc3ccc4c(c3)NC(=O)C(C)(C)O4)n2)c1 [Compound R927075]

IC50 [1, 4]: 0.811 µM
SMILES: NC1CCOc2ccc(Nc3ncc(F)c(Nc4ccc(Cl)c(Cl)c4)n3)cc21 (racemic) [Compound R950437]

IC50 [1, 4]: 0.261 µM
SMILES: COc1c(C)cc(Nc2ncc(F)c(Nc3ccc4c(n3)NC(=O)C(C)(C)O4)n2)cc1Cl [Compound R940391]

IC50 [1, 4]: 0.23 µM
SMILES: COc1c(C)cc(Nc2ncc(F)c(Nc3ccc4cnn(C)c4c3)n2)cc1Cl [Compound R935419]

IC50 [1, 4]: 0.345 µM
SMILES: COc1cc(Nc2ncc(F)c(Nc3ccc(N4CCOCC4)c(Cl)c3)n2)cc(OC)c1 [Compound R926986]

IC50 [1, 4]: 0.237 µM
SMILES: Fc1cc(Nc2nc(Nc3ccc4[nH]ncc4c3)ncc2F)ccc1Cl [Compound R935415]

IC50 [1, 4]: 10 µM
SMILES: COc1cc(Nc2ncc(F)c(Nc3ccc(N4CCOCC4)c(Cl)c3)n2)cc(C(F)(F)F)c1 [Compound R926987]

IC50 [1, 4]: 12.2 µM
SMILES: COc1c(Cl)cc(Nc2ncc(F)c(Nc3ccc(Cl)c(Cl)c3)n2)cc1Cl [Compound R927058]

IC50 [1, 4]: 0.145 µM
SMILES: COC(=O)COc1cccc(Nc2ncc(F)c(Nc3ccc4c(n3)NC(=O)C(C)(C)O4)n2)c1 [Compound R940392]

IC50 ([2]; low cell density): > 10 µM
SMILES: Cc1cc(C)cc(Nc2ncc(F)c(Nc3ccc4c(c3)NC(C)(C)CO4)n2)c1 [Compound R908586]

IC50 [1, 4]: 16.5 µM
SMILES: Cc1cc(Nc2ncc(F)c(Nc3ccc4c(n3)NC(=O)C(C)(C)O4)n2)cc(Cl)c1O [Compound R940394]

IC50 [1, 4]: 0.337 µM
SMILES: CNC(=O)CCn1ncc2ccc(Nc3ncc(F)c(Nc4ccc5c(c4)NC(=O)C(C)(C)O5)n3)cc21 [Compound R935435]

IC50 [1, 4]: 11.3 µM
SMILES: COc1ccc(Nc2nc(Nc3cc(Cl)cc(Cl)c3)ncc2F)cc1Cl [Compound R926990]

IC50 [1, 4]: > 10 µM
SMILES: COc1ccc(Nc2nc(Nc3cc(Cl)c(OC)c(Cl)c3)ncc2F)cc1Cl [Compound R927054]

IC50 [1, 4]: 0.689 µM
SMILES: COc1ccc(Nc2nc(Nc3cc(C)c(C)c(C)c3)ncc2F)cc1Cl [Compound R926993]

IC50 [1, 4]: 0.928 µM
SMILES: COc1c(Cl)cc(Nc2ncc(F)c(NC3CCC3)n2)cc1Cl [Compound R945397]

IC50 [1, 4]: 0.293 µM
SMILES: COc1c(Cl)cc(Nc2ncc(F)c(Nc3ccc4c(c3)C(=O)NC(=O)C4(C)C)n2)cc1Cl [Compound R908955]

IC50 [1, 4]: 5.53 µM
SMILES: COc1cc(Nc2nc(Nc3ccc4c(c3)C(N)CCO4)ncc2F)cc(OC)c1 (racemic) [Compound R950436]

IC50 [1, 4]: 0.0668 µM
SMILES: COc1cc(Nc2ncc(F)c(Nc3ccc4c(c3)NC(=O)C(C)(C)O4)n2)cc(OC)c1 [Compound R927073]

IC50 [1, 4]: 0.696 µM
SMILES: COc1ccc(Nc2nc(Nc3ccc4c(cnn4C)c3)ncc2F)cc1OC [Compound R935412]

Continued, compound first:

SMILES: CC1=C(Nc2ncc(F)c(Nc3ccc4c(c3)OCCO4)n2)N(c2ccccc2)CO1 [Compound R926793]
IC50 [1, 5]: 3.07 µM
IC50 ([2]; Homo sapiens, Mast cell, Low Density): > 10 µM

SMILES: Cn1ncc2ccc(Nc3ncc(F)c(Nc4ccc5c(c4)OCCO5)n3)cc21 [Compound R935392]
IC50 [1, 4]: 0.204 µM
IC50 ([2]; low cell density): > 10 µM

SMILES: O=C(COc1cccc(Nc2ncc(F)c(NC3CC3)n2)c1)NC1CCC1 [Compound R945364]
IC50 [1, 4]: 1 µM
IC50 ([2]; low cell density): > 10 µM

SMILES: O=C(COc1cccc(Nc2ncc(F)c(NC3CCC3)n2)c1)NC1CC1 [Compound R945393]
IC50 [1, 4]: 1.34 µM
IC50 ([2]; low cell density): 21.7 µM

SMILES: Fc1cnc(Cl)nc1Nc1ccc(Cl)c(C(F)(F)F)c1 [Compound R926877]
IC50 [1, 5]: > 10 µM
IC50 ([3]; Homo sapiens, Jurkat): > 10 µM

SMILES: NC1CCCCC1Nc1ncc(F)c(Nc2ccc3c(c2)NC(=O)C(CCO)O3)n1 (stereo not drawn) [Compound R950443]
IC50 [1, 4]: > 10 µM
IC50 ([2]; low cell density): > 10 µM

SMILES: Cc1cccc(C)c1Nc1ncc(F)c(Nc2ccc3cc[nH]c3c2)n1 [Compound R927088]
IC50 [1, 4]: 0.117 µM
IC50 ([2]; low cell density): > 10 µM

SMILES: Fc1cnc(Cl)nc1Nc1ccc(C(F)(F)F)cc1 [Compound R926876]
IC50 [1, 5]: > 10 µM
IC50 ([3]; Homo sapiens, Jurkat): > 10 µM

SMILES: COc1ccc(Nc2nc(Cl)ncc2F)cn1 [Compound R926878]
IC50 [1, 5]: > 10 µM
IC50 ([3]; Homo sapiens, Jurkat): > 10 µM

SMILES: Fc1cnc(Cl)nc1Nc1ccc(Cl)c(Cl)c1 [Compound R926884]
IC50 [1, 5]: > 10 µM
IC50 ([3]; Homo sapiens, Jurkat): > 10 µM

SMILES: COC(=O)c1cc(Nc2nc(Nc3ccc(OC(C)C)cc3)ncc2F)cn1C [Compound R935165]
IC50 [3]: > 10 µM
IC50 ([2]; Low Density): > 10 µM

SMILES: CN1C=COc2ccc(Nc3nc(Nc4cccc(O)c4)ncc3F)cc21 [Compound R908710]
IC50 ([1]; Low Density, read-out: CHMC anti-IgE Tryptase): 1.84 µM
IC50 [3]: 4.28 µM

SMILES: COC1=CC=C(Nc2nc(Cl)ncc2F)CC1=CN(C(=O)OC(C)(C)C)C(C)C [Compound R940320]
IC50 [1, 5]: > 10 µM
IC50 ([3]; Homo sapiens, Jurkat): 7.82 µM

SMILES: Cc1cccc(Nc2nc(Cl)ncc2F)n1 [Compound R926888]
IC50 [1, 5]: > 10 µM
IC50 ([3]; Homo sapiens, Jurkat): 5.58 µM

SMILES: O=C1COc2ccc(Nc3nc(Nc4cccc(Br)c4)ncc3F)nc2N1 [Compound R945455]
IC50 ([2]; low cell density): > 10 µM

SMILES: O=C1COc2ccc(Nc3ncc(F)c(Nc4cccc(O)c4)n3)cc2N1 [Compound R909238]
IC50 [1, 6]: 0.174 µM
IC50 ([3]; Homo sapiens, Jurkat): 5.02 µM

SMILES: Cc1cc(Nc2nc(Nc3cccc(OCCN4CCOCC4)c3)ncc2F)cc(Cl)c1O [Compound R940269]
IC50 [3]: 1.9 µM
IC50 ([2]; Low Density): > 10 µM

SMILES: Fc1cnc(Cl)nc1Nc1ccc(OC(F)(F)F)cc1 [Compound R926875]
IC50 [1, 5]: > 10 µM
IC50 ([3]; Homo sapiens, Jurkat): > 10 µM

SMILES: CCOC(=O)C=C1NN=C(c2cccc(Nc3nc(Cl)ncc3F)c2)O1 [Compound R926873]
IC50 [1, 5]: > 10 µM
IC50 ([3]; Homo sapiens, Jurkat): > 10 µM

SMILES: CNC(=O)COc1cccc(Nc2ncc(F)c(Nc3ccc4c(c3)NC(=O)C(C)(C(=O)NC)O4)n2)c1 (racemic) [Compound R940365]
IC50 ([2]; low cell density): > 10 µM

SMILES: CC(=O)N(C)c1ccc(Nc2nc(NC3CCC3)ncc2F)cc1 [Compound R945379]
IC50 [1, 4]: > 10 µM

SMILES: CCN(CC)CCNC(=O)c1ccc(Nc2ncc(F)c(Nc3ccc(Cl)c(Cl)c3)n2)cc1 [Compound R950445]
IC50 [1, 4]: 0.379 µM

SMILES: CNC(=O)COc1cccc(Nc2ncc(F)c(Nc3ccc4c(c3)[C@H](N)CCO4)n2)c1 [Compound R950421]
IC50 ([2]; low cell density): > 10 µM

SMILES: Cn1ncc2ccc(Nc3nc(Cl)ncc3F)cc21 [Compound R935394]
IC50 [1, 4]: > 10 µM

SMILES: COc1cc(Nc2ncc(F)c(Nc3ccc4c(c3)C(NC(=O)OC(C)(C)C)CCO4)n2)cc(OC)c1 (racemic) [Compound R950425]
IC50 [1, 4]: 1.15 µM

SMILES: OCCOc1ccc(Nc2ncc(F)c(Nc3cccc(O)c3)n2)cc1 [Compound R935155]
IC50 [1, 5]: 0.401 µM

SMILES: Fc1ccc(Nc2nc(Cl)ncc2F)cc1F [Compound R926882]
IC50 [1, 5]: > 10 µM
IC50 ([3]; Homo sapiens, Jurkat): 9.05 µM

SMILES: C[C@@H]1Oc2ccc(Nc3nc(Nc4ccc(CNC(=O)OC(C)(C)C)cc4)ncc3F)cc2NC1=O [Compound R950460]
IC50 [1, 4]: 0.177 µM

SMILES: Fc1cnc(NC2CC2)nc1NC1CC1 [Compound R945376]
IC50 [1, 4]: > 10 µM

SMILES: CNC(=O)COc1cccc(Nc2ncc(F)c(Nc3ccc4c(c3)NC(=O)C(F)(F)O4)n2)c1 [Compound R945415]
IC50 [1, 4]: 0.046 µM

SMILES: CC1Oc2ccc(Nc3nc(Nc4ccc5c(c4)C(N)CCO5)ncc3F)cc2NC1=O (mixture of isomers) [Compound R950438]
IC50 [1, 4]: 0.888 µM

SMILES: Oc1cccc(Nc2ncc(F)c(Nc3ccc4c(c3)OCCO4)n2)c1 [Compound R925796]
IC50 [1, 6]: 2 µM
IC50 ([3]; Homo sapiens, Jurkat): 1.83 µM

SMILES: Fc1cnc(Cl)nc1Nc1ccc2ncccc2c1 [Compound R920409]
IC50 [1, 5]: > 10 µM

SMILES: COc1ccc(Nc2ncc(F)c(Nc3ccc4c(c3)C(NC(=O)OC(C)(C)C)CCO4)n2)cc1Cl (racemic) [Compound R950427]
IC50 [1, 4]: 1.9 µM

SMILES: CCCCOc1ccc(Nc2ncc(F)c(Nc3ccc4c(n3)NC(=O)CO4)n2)cc1 [Compound R945408]
IC50 [1, 4]: > 10 µM

SMILES: Fc1cnc(Cl)nc1Nn1cccc1 [Compound R935275]
IC50 [1, 5]: > 10 µM

SMILES: CCOC(=O)CCn1ncc2ccc(Nc3ncc(F)c(Nc4ccc(OC)c(Cl)c4)n3)cc21 [Compound R935406]
IC50 [1, 4]: 1.17 µM

SMILES: Fc1cnc(Cl)nc1Nc1cccc(OC(F)(F)F)c1 [Compound R920402]
IC50 [1, 5]: > 10 µM

SMILES: CNC(=O)c1ccc(Cn2ncc3ccc(Nc4ncc(F)c(Nc5ccc6c(c5)OCCO6)n4)cc32)c(OC)c1 [Compound R935399]
IC50 [1, 4]: 0.909 µM
